These results are taken from patent US20190275052A1, “COMBINATION THERAPY OF AN HBV CAPSID ASSEMBLY INHIBITOR AND A NUCLEOS(T)IDE ANALOGUE” (Hoffmann-La Roche Inc., priority 2016, published 2019).

Where two headings read alike, the source gives them in different places.

For test [1], the system named is HBV. In words: anti-HBV activity in HBV infected differentiated HepaRG cells (HBV DNA in supernatant by qPCR; checkerboard combination, isobologram model). To be noted: Hepatitis B virus, 264 h, mean of 3 independent experiments. Type of test: cell-based, HBV (genotype D). As for the experimental part:
HepG2.2.15 cells were cultured in DMEM+Glutamax I (Gibco, #21885) supplemented with 10% FBS, 1% Pen/Strep (Gibco, #15140) and G-418 (250 μg/mL) and used for production of infectious HBV (genotype D). 90% confluent cells from three T175 flasks were trypsinized and transferred into one collagen coated hyperflask (550 mL). Once the cells are confluent, medium was changed to DMEM+Glutamax I with 1% DMSO and 2.5% FBS. Once the cells were slightly over confluent, medium was changed to DMEM/F12+Glutamax I (Gibco, #31331) supplemented with MEM non-essential amino acids (6 mL, Gibco, #11140), Pen/Strep (6 mL), sodium pyruvate (6 mL), DMSO (9 mL) and FBS (10 mL) (all per 500 mL medium). Medium was changed every 3 days and supernatants were harvested for 2 weeks. Virus was concentrated from supernatants by PEG precipitation and the titer (genome equivalent (GE)/mL) was determined by qPCR. Briefly, supernatants were mixed with 40% PEG solution at a ratio of 4:1, incubated on a shaker at 4° C. overnight and then centrifuged using 50 mL falcon tubes at 4° C. for one hour at 3724 g (RCF). The supernatant was discarded and the centrifugation step was repeated with new supernatant reusing the tubes until all PEG-precipitated supernatant was processed. The pellets were re-suspended in William's E Medium (Gibco, #22551) at a concentration of 10^7-10^9 genome equivalents (GE) per mL and frozen at −80° C. DNA copy number calculation was based on a standard curve generated from HBV plasmid dilutions with known concentrations.
HepaRG cells (Biopredic International, Saint-Gregoire, France) were cultured in working growth medium (500 mL Willams E Medium with 50 mL HepaRG Growth supplement from Biopredic, 5 mL Glutamax-I (Gibco, #35050) and 5 mL Pen/Strep) for 2 weeks. After 2 weeks medium was changed to differentiation medium containing 1.8% DMSO (500 mL Willams E Medium with 50 mL HepaRG Growth supplement from Biopredic, 5 mL Pen/Strep, 5 mL Glutamax-I and 9 mL DMSO). Medium was changed twice a week up to 2 weeks. Once fully differentiated, cells were trypsinized and seeded into collagenated 96 well plates (50,000 cells/well in 100 μL) in differentiation medium. Cells were cultured at least 5 days in the 96 well plates before they were infected with HBV.
For HBV infection of differentiated HepaRG cells, differentiation medium was removed and new differentiation medium (120 μL/well) containing 4% PEG-8000 and virus stock (20 to 30 GE/cell) was added. Cells were cultured at 37° C. for 16 to 20 h before medium was removed, cells were washed 4 times with PBS and new differentiation medium (120 μL/well) was added.
At day 4 post infection, medium was removed and 100 μL new differentiation medium was added to each well. 3-fold serial dilutions (5 μL compound to 10 μL DMSO) of Drug A and Drug B were prepared in 100% DMSO starting with 15 μL undiluted compound solution (400-fold concentration of highest test concentration). 5 μL of drug A and B dilutions were then added to 990 μL medium (containing 0.8% DMSO) in a 96 deep well plate in a fashion according to the design shown in Table 3. 100 μL thereof were added to the HepaRG cells with a final DMSO concentration of 1.8%. Drug A tested was Compound 6; Drug B tested was Compound 1, Compound 2, Compound 3, Compound 4 or Compound 5. The concentration ranges tested were 1 nM to 0.01 nM for Compound 6, and 300 nM to 0.412 nM for Compound 1 to 5. Medium was replaced by new medium with compound at day 7 post infection and at day 11 post infection cell supernatants were harvested and directly used for HBV DNA extraction or stored at −20° C. Cell viability of the cells was determined using the cell viability assay described below.
HBV DNA from HepaRG cell supernatants was extracted using the MagNA Pure 96 (Roche) robot. 100 μL of the supernatants were mixed in a processing cartridge with 200 μL MagNA Pure 96 external lysis buffer (Roche, Cat. No. 06374913001) and incubated for 10 minutes. […]
For orientation: In qPCR the cycle at which signal appears reflects the starting amount.

Test [2] concerns HBV. The note with it: HBV infected transgenic or humanized mice; Deres 2003, Brezillon 2011; cited from earlier work.
Where [3] appears, read: individual compound alone, from the combination studies, HBV DNA in supernatant day 11 post infection, read-out: EC50 ± SD (n) Drug A.

By EC50 is commonly meant the midpoint of the concentration-response curve. Turning to `COC(=O)C1=C(CN2CCN3C(=O)N(CC(C)(C)C(=O)O)CC3C2)NC(c2nccs2)=N[C@H]1c1ccc(F)cc1Cl` (stereo in doubt) [Compound 5, 3-[(8aS)-7-[[(4R)-4-(2-chloro-4-fluoro-phenyl)-5-methoxycarbonyl-2-thiazol-2-yl-1,4-dihydropyrimidin-6-yl]methyl]-3-oxo-5,6,8,8a-tetrahydro-1H-imidazo[1,5-a]pyrazin-2-yl]-2,2-dimethyl-propanoic acid], in the test on HBV [1] (setting [3]), the EC50 came to 24.8 nM. Consider `COC(=O)C1=C(C)NC(c2ncc(F)cc2F)=N[C@H]1c1ccc(F)cc1Cl` [Bay 41-4109], for which the “in vivo efficacy (HBV DNA reduction)” value in the test with HBV [2] is listed as “demonstrated in vivo efficacy with HBV DNA reduction”. Turning to `COC(=O)C1=C(CN2CCOC[C@H]2C(=O)O)NC(c2nccs2)=N[C@H]1c1ccc(F)cc1Cl` [Compound 1, (S)-4-[(R)-6-(2-Chloro-4-fluoro-phenyl)-5-methoxycarbonyl-2-thiazol-2-yl-3,6-dihydro-pyrimidin-4-ylmethyl]-morpholine-3-carboxylic acid], the EC50 in the test on HBV [1] (setting [3]) stood at 19.9 nM. For the molecule `CCOC(=O)C1=C(CN2CCN3C(=O)N(CC(C)(C)C(=O)O)C[C@@H]3C2)NC(c2nccs2)=N[C@H]1c1cccc(F)c1C` [Compound 2, 3-[(8aS)-7-[[(4S)-5-ethoxycarbonyl-4-(3-fluoro-2-methyl-phenyl)-2-thiazol-2-yl-1,4-dihydropyrimidin-6-yl]methyl]-3-oxo-5,6,8,8a-tetrahydro-1H-imidazo[1,5-a]pyrazin-2-yl]-2,2-dimethyl-propanoic acid], in the test on HBV [1] (setting [3]), the concentration for a half-maximal effect (EC50) is 5.8 nM.

Regarding `CCOC(=O)C1=C(CN2CCN3C(=O)N(CC(C)(C)C(=O)O)C[C@@H]3C2)NC(c2nccs2)=N[C@H]1c1cccc(F)c1Cl` [Compound 3, 3-[(8aS)-7-[[(4R)-4-(2-chloro-3-fluoro-phenyl)-5-ethoxycarbonyl-2-thiazol-2-yl-1,4-dihydropyrimidin-6-yl]methyl]-3-oxo-5,6,8,8a-tetrahydro-1H-imidazo[1,5-a]pyrazin-2-yl]-2,2-dimethyl-propanoic acid], in the test on HBV [1] (setting [3]), the EC50 stood at 7.5 nM. On to `COC(=O)C1=C(CN2CCN3C(=O)N(CC(C)(C)CC(=O)O)C[C@@H]3C2)NC(c2nccs2)=N[C@H]1c1ccc(F)cc1Cl` [Compound 4, 4-[(8aS)-7-[[(4R)-4-(2-chloro-4-fluoro-phenyl)-5-methoxycarbonyl-2-thiazol-2-yl-1,4-dihydropyrimidin-6-yl]methyl]-3-oxo-5,6,8,8a-tetrahydro-1H-imidazo[1,5-a]pyrazin-2-yl]-3,3-dimethyl-butanoic acid], for which the EC50 in the test with HBV [1] (setting [3]) is 16.2 nM. With `C=C1[C@H](CO)[C@@H](O)C[C@@H]1n1cnc2c(=O)[nH]c(N)nc21` [Compound 6, Entecavir, reference compound], the EC50 in the test with HBV [1] (Compound 6 alone, from the combination study with the Drug A of the same row, HBV DNA day 11 post infection, read-out: EC50 ± SD (n) Drug B) was found to be 0.07 nM.
